Data reported in patent US8871934B2, “Fluorene compound and pharmaceutical use thereof” (Japan Tobacco Inc., priority 2008, dated 2014).
pIC50: −log10 of the molar value.

These compounds were tested against human PDHK2 (hPDHK2) (Homo sapiens (Human), UniProt Q15119) (assay: Inhibitory action of PDHK activity in vitro (kinase reaction, residual PDH activity measured)). Details: PDHK inhibitory activity, class symbol of IC50.
Type: biochemical

SMILES | pIC50
COc1cccc2c1-c1ccccc1C2(O)C(F)(F)F (stereo not shown) [compound 46] | < 6.00
COc1ccc2c(c1)-c1ccccc1C2(O)C(F)(F)F (stereo not shown) [compound 47] | < 6.00
CCOC(=O)c1cccc2c1-c1ccccc1C2(O)C(F)(F)F (stereo not shown) [compound 48] | 6.00 to 7.00
N#Cc1cccc2c1-c1ccccc1C2(O)C(F)(F)F (stereo not shown) [compound 49] | < 6.00
COC(=O)c1cc(C(=O)OC)c2c(c1)C(O)(C(F)(F)F)c1ccccc1-2 (stereo not shown) [compound 50] | 6.00 to 7.00
CCN(C)C(=O)c1ccc2c(c1)C(O)(C(F)(F)F)c1ccccc1-2 (stereo not shown) [compound 51] | < 6.00
O=C(c1ccc2c(c1)C(O)(C(F)(F)F)c1ccccc1-2)N1CCCCC1 (stereo not shown) [compound 52] | < 6.00
O=C(c1ccc2c(c1)C(O)(C(F)(F)F)c1ccccc1-2)N1CCCC1 (stereo not shown) [compound 53] | 6.00 to 7.00
CCN(CC)C(=O)c1ccc2c(c1)C(O)(C(F)(F)F)c1ccccc1-2 (stereo not shown) [compound 54] | < 6.00
Nc1ccc2c(c1)C(O)(C(F)(F)F)c1ccccc1-2 (stereo not shown) [compound 55] | < 6.00
CN(C(=O)c1ccc2c(c1)C(O)(C(F)(F)F)c1ccccc1-2)c1ccccc1 (stereo not shown) [compound 56] | < 6.00
CN(C(=O)c1ccc2c(c1)C(O)(C(F)(F)F)c1ccccc1-2)C1CCC1 (stereo not shown) [compound 57] | < 6.00
O=C(c1ccc2c(c1)C(O)(C(F)(F)F)c1ccccc1-2)N1CCC1 (stereo not shown) [compound 58] | 6.00 to 7.00
CCCOC(=O)c1cccc2c1-c1ccccc1C2(O)C(F)(F)F (stereo not shown) [compound 59] | 6.00 to 7.00
CC(C)OC(=O)c1cccc2c1-c1ccccc1C2(O)C(F)(F)F (stereo not shown) [compound 60] | < 6.00
COC(=O)c1cc(Cl)c2c(c1)C(O)(C(F)(F)F)c1ccccc1-2 (stereo not shown) [compound 61] | 6.00 to 7.00
Oc1ccc2c(c1)-c1ccccc1C2(O)C(F)(F)F (stereo not shown) [compound 62] | < 6.00
Oc1cccc2c1-c1ccccc1C2(O)C(F)(F)F (stereo not shown) [compound 63] | < 6.00
OC1(C(F)(F)F)c2ccccc2-c2c(C(F)(F)F)cccc21 (stereo not shown) [compound 64] | < 6.00
CON(C)C(=O)c1cccc2c1-c1ccccc1C2(O)C(F)(F)F (stereo not shown) [compound 65] | < 6.00
CCOc1cccc2c1-c1ccccc1C2(O)C(F)(F)F (stereo not shown) [compound 66] | < 6.00
CCOc1ccc2c(c1)-c1ccccc1C2(O)C(F)(F)F (stereo not shown) [compound 67] | < 6.00
CC(=O)c1cccc2c1-c1ccccc1C2(O)C(F)(F)F (stereo not shown) [compound 68] | 6.00 to 7.00
OCc1ccc2c(c1)C(O)(C(F)(F)F)c1ccccc1-2 (stereo not shown) [compound 69] | < 6.00
CCCc1ccc2c(c1)C(O)(C(F)(F)F)c1ccccc1-2 (stereo not shown) [compound 70] | < 6.00
CC(C)c1ccc2c(c1)C(O)(C(F)(F)F)c1ccccc1-2 (stereo not shown) [compound 71] | < 6.00
CCNC(=O)c1ccc2c(c1)-c1ccccc1C2(O)C(F)(F)F (stereo not shown) [compound 72] | < 6.00
CC(C)NC(=O)c1ccc2c(c1)-c1ccccc1C2(O)C(F)(F)F (stereo not shown) [compound 73] | < 6.00
OCc1cccc2c1-c1ccccc1C2(O)C(F)(F)F (stereo not shown) [compound 74] | < 6.00

Same assay, conditions: read-out: PDHK inhibitory activity IC50

SMILES | pIC50
COc1cccc2c1-c1ccccc1C2(O)C(F)(F)F (stereo not shown) [compound 46] | 5.19
COc1ccc2c(c1)-c1ccccc1C2(O)C(F)(F)F (stereo not shown) [compound 47] | 5.31
CCOC(=O)c1cccc2c1-c1ccccc1C2(O)C(F)(F)F (stereo not shown) [compound 48] | 6.19
N#Cc1cccc2c1-c1ccccc1C2(O)C(F)(F)F (stereo not shown) [compound 49] | 5.75
COC(=O)c1cc(C(=O)OC)c2c(c1)C(O)(C(F)(F)F)c1ccccc1-2 (stereo not shown) [compound 50] | 7.00
CCN(C)C(=O)c1ccc2c(c1)C(O)(C(F)(F)F)c1ccccc1-2 (stereo not shown) [compound 51] | 5.59
O=C(c1ccc2c(c1)C(O)(C(F)(F)F)c1ccccc1-2)N1CCCCC1 (stereo not shown) [compound 52] | 5.40
O=C(c1ccc2c(c1)C(O)(C(F)(F)F)c1ccccc1-2)N1CCCC1 (stereo not shown) [compound 53] | 6.25
CCN(CC)C(=O)c1ccc2c(c1)C(O)(C(F)(F)F)c1ccccc1-2 (stereo not shown) [compound 54] | 4.66
Nc1ccc2c(c1)C(O)(C(F)(F)F)c1ccccc1-2 (stereo not shown) [compound 55] | 4.70
CN(C(=O)c1ccc2c(c1)C(O)(C(F)(F)F)c1ccccc1-2)c1ccccc1 (stereo not shown) [compound 56] | < 4.00
CN(C(=O)c1ccc2c(c1)C(O)(C(F)(F)F)c1ccccc1-2)C1CCC1 (stereo not shown) [compound 57] | 5.25
O=C(c1ccc2c(c1)C(O)(C(F)(F)F)c1ccccc1-2)N1CCC1 (stereo not shown) [compound 58] | 6.71
CCCOC(=O)c1cccc2c1-c1ccccc1C2(O)C(F)(F)F (stereo not shown) [compound 59] | 6.11
CC(C)OC(=O)c1cccc2c1-c1ccccc1C2(O)C(F)(F)F (stereo not shown) [compound 60] | 5.69
COC(=O)c1cc(Cl)c2c(c1)C(O)(C(F)(F)F)c1ccccc1-2 (stereo not shown) [compound 61] | 6.53
Oc1ccc2c(c1)-c1ccccc1C2(O)C(F)(F)F (stereo not shown) [compound 62] | 4.80
Oc1cccc2c1-c1ccccc1C2(O)C(F)(F)F (stereo not shown) [compound 63] | 5.07
OC1(C(F)(F)F)c2ccccc2-c2c(C(F)(F)F)cccc21 (stereo not shown) [compound 64] | 4.75
CON(C)C(=O)c1cccc2c1-c1ccccc1C2(O)C(F)(F)F (stereo not shown) [compound 65] | < 4.00
CCOc1cccc2c1-c1ccccc1C2(O)C(F)(F)F (stereo not shown) [compound 66] | 4.18
CCOc1ccc2c(c1)-c1ccccc1C2(O)C(F)(F)F (stereo not shown) [compound 67] | 5.38
CC(=O)c1cccc2c1-c1ccccc1C2(O)C(F)(F)F (stereo not shown) [compound 68] | 6.20
OCc1ccc2c(c1)C(O)(C(F)(F)F)c1ccccc1-2 (stereo not shown) [compound 69] | 4.80
CCCc1ccc2c(c1)C(O)(C(F)(F)F)c1ccccc1-2 (stereo not shown) [compound 70] | 5.66
CC(C)c1ccc2c(c1)C(O)(C(F)(F)F)c1ccccc1-2 (stereo not shown) [compound 71] | 4.99
CCNC(=O)c1ccc2c(c1)-c1ccccc1C2(O)C(F)(F)F (stereo not shown) [compound 72] | 5.35
CC(C)NC(=O)c1ccc2c(c1)-c1ccccc1C2(O)C(F)(F)F (stereo not shown) [compound 73] | 5.32
OCc1cccc2c1-c1ccccc1C2(O)C(F)(F)F (stereo not shown) [compound 74] | 5.48
